Experiment [1] concerns the target T1, GST-tagged truncated LRRK2 (Homo sapiens, UniProt Q5S007).
T1 construct: GST-tagged truncated LRRK2 from Invitrogen (Cat # PV4874); GST; purchased Invitrogen PV4874
The experiment can be described thus: LRRK2 Assay, Format 2 (Lantha Screen), WT. The experiment is classed as biochemical.

The target of experiment [2] is mutant G2019S LRRK2 (Homo sapiens, UniProt Q5S007, G2019S). The experiment can be described thus: LRRK2 Assay, Format 2 (Lantha Screen), G2019S mutant. It counts as biochemical. Details: purchased Invitrogen PV4881.
Sequence of mutant G2019S LRRK2 (Q5S007 970-2527 G2019S limits assumed): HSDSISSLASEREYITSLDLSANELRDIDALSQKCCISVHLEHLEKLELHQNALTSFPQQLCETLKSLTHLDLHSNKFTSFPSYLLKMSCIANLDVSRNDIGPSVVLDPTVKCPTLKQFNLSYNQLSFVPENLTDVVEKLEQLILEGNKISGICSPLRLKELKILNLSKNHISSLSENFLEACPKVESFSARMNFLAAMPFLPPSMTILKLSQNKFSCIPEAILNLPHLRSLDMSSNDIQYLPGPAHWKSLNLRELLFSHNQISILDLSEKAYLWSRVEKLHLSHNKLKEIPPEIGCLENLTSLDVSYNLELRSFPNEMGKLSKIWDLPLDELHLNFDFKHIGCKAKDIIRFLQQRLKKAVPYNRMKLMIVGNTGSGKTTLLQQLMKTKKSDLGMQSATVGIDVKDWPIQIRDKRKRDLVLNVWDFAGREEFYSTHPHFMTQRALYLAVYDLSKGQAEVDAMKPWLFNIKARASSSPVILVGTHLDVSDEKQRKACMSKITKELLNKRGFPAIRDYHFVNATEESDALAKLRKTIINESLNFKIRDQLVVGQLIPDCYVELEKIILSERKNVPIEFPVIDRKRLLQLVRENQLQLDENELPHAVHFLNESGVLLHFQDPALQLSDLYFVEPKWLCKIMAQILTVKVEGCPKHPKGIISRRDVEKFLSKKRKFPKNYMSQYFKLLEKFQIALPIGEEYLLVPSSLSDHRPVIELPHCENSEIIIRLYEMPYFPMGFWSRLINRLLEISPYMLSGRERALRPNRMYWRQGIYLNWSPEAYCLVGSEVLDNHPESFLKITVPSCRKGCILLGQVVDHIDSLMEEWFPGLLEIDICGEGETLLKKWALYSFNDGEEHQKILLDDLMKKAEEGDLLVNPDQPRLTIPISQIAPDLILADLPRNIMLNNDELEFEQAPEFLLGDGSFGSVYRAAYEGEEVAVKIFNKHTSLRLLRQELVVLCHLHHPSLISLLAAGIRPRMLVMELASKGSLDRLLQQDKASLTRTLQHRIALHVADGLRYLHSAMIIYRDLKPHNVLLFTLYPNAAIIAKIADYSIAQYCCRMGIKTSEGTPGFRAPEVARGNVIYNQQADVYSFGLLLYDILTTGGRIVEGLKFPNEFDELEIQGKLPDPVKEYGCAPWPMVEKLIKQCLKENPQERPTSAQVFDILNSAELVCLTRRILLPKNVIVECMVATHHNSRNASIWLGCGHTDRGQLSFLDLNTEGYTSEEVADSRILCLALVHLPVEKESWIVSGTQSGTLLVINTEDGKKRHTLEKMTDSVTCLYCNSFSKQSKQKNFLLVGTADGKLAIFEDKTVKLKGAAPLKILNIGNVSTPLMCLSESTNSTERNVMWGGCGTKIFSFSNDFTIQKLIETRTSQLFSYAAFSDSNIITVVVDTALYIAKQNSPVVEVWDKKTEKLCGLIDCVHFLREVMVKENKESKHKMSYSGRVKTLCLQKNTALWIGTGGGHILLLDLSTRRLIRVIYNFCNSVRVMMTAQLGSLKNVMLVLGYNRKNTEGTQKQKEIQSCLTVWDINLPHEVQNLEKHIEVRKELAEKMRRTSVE
Where [3] appears, read: geometric mean of 2-4 determinations unless otherwise indicated (a: >=5; b: single determination).
[4] abbreviates: geometric mean of 2-4 determinations unless otherwise indicated (a: >=5; b: single determination), read-out: LRRK2, Format 2 G2019S IC50.

Molecules are shown by their SMILES. Where a name gives a salt, the structure may show the parent alone. Read-outs that look alike come from different tables or passages of the source.

T1 sequence (Q5S007 970-2527 limits assumed): as the sequence (Q5S007 970-2527 G2019S limits assumed) above, with S1050G counted along it

Turning to `C[C@@H]1C[C@H](n2c(Cc3ccncn3)nc3cnc4ccc(C(F)(F)F)cc4c32)CCO1` [Example 178, 1-[(2R,4R)-2-methyltetrahydro-2H-pyran-4-yl]-2-(pyrimidin-4-ylmethyl)-8-(trifluoromethyl)-1H-imidazo[4,5-c]quinoline], the IC50 in experiment [1] (setting [3]) was determined as 5.64 nM; in experiment [2] (setting [4]), 3.32 nM.
The like results for `Cc1nn2cc(Cc3nc4cnc5ccc(Cl)cc5c4n3[C@@H]3CCO[C@H](C)C3)nc2s1` [Example 162, 8-chloro-2-[(2-methylimidazo[2,1-b][1,3,4]thiadiazol-6-yl)methyl]-1-[(2R,4R)-2-methyltetrahydro-2H-pyran-4-yl]-1H-imidazo[4,5-c]quinoline, formate salt] were, in that order, 3.86 nM and 3.83 nM.
Regarding `Cc1cc(Cc2nc3cnc4ccc(C#N)cc4c3n2[C@@H](C)CF)no1` [Example 243, 1-[(2S)-1-fluoropropan-2-yl]-2-[(5-methyl-1,2-oxazol-3-yl)methyl]-1H-imidazo[4,5-c]quinoline-8-carbonitrile, formate salt], the values for the half-maximal inhibitory concentration (IC50) in experiment [1] (setting [3]) and in experiment [2] (setting [4]) were 48.7 nM and 85.9 nM, respectively.
For `Cc1nc(Cc2nc3cnc4ccc(C#N)cc4c3n2[C@@H]2CCO[C@H](C)C2)no1` [Example 123, 2-[(5-methyl-1,2,4-oxadiazol-3-yl)methyl]-1-[(2R,4R)-2-methyltetrahydro-2H-pyran-4-yl]-1H-imidazo[4,5-c]quinoline-8-carbonitrile] the same measures were 9.25 nM and 8.91 nM.
On to `C[C@@H]1C[C@H](n2c(C(F)(F)c3ccccn3)nc3cnc4ccc(C#N)cc4c32)CCO1` [Example 236, 2-[difluoro(pyridin-2-yl)methyl]-1-[(2R,4R)-2-methyltetrahydro-2H-pyran-4-yl]-1H-imidazo[4,5-c]quinoline-8-carbonitrile, formate salt], for which the IC50 in experiment [1] (setting [3]) worked out at 13 nM; in experiment [2] (setting [4]), 11.9 nM.
In the case of `CC(C)c1cn(Cc2nc3cnc4ccc(C#N)cc4c3n2[C@@H]2CCO[C@H](C)C2)nn1` [Example 126, 1-[(2R,4R)-2-methyltetrahydro-2H-pyran-4-yl]-2-{[4-(propan-2-yl)-1H-1,2,3-triazol-1-yl]methyl}-1H-imidazo[4,5-c]quinoline-8-carbonitrile, formate salt], the figures for the IC50 in experiment [1] (setting [3]) and in experiment [2] (setting [4]) were 8.39 nM and 8.04 nM, respectively.
On to `C[C@@H]1C[C@H](n2c(Cn3cccn3)nc3cnc4ccc(Cl)cc4c32)CCO1` [Example 130, 8-chloro-1-[(2R,4R)-2-methyltetrahydro-2H-pyran-4-yl]-2-(1H-pyrazol-1-ylmethyl)-1H-imidazo[4,5-c]quinoline, formate salt], for which the results for the IC50 in experiment [1] (setting [3]) and in experiment [2] (setting [4]) were 3.43 nM and 3.84 nM, respectively.
With `Cc1nn2cc(Cc3nc4cnc5ccc(C#N)cc5c4n3CC(C)(F)F)nc2s1` [Example 226, 1-(2,2-difluoropropyl)-2-[(2-methylimidazo[2,1-b][1,3,4]thiadiazol-6-yl)methyl]-1H-imidazo[4,5-c]quinoline-8-carbonitrile], the 50% inhibitory concentration (IC50) in experiment [1] (setting [3]) came out at 4.54 nM; in experiment [2] (setting [4]) it was 5.82 nM.
Regarding `Cc1cc(Cc2nc3cnc4ccc(C#N)cc4c3n2C2CCC(F)C2)on1` (single isomer, unassigned; ent-2) [enantiomer of Example 118, 1-(cis-3-fluorocyclopentyl]-2-[(3-methyl-1,2-oxazol-5-yl)methyl]-1H-imidazo[4,5-c]quinoline-8-carbonitrile, ENT-2], the IC50 in experiment [1] (100 nM LRRKtide, 1000 mM ATP (so in the source), 30 minutes at room temperature) came to 22.4 nM; in experiment [2] (100 nM LRRKtide, 1000 mM ATP (so in the source), 30 minutes at room temperature, read-out: LRRK2, Format 2 G2019S mutant IC50), 26.1 nM.
As to `CO[C@H]1C[C@@H](n2c(Cn3cc(C)cn3)nc3cnc4ccc(Cl)cc4c32)C1` [Example 180, 8-chloro-1-[(1s,3s)-3-methoxycyclobutyl]-2-[(4-methyl-1H-pyrazol-1-yl)methyl]-1H-imidazo[4,5-c]quinoline], the values for the IC50 in experiment [1] (setting [3]) and in experiment [2] (setting [4]) were 30.4 nM and 29.9 nM, respectively.
For the compound `Cc1cnc(Cc2nc3cnc4ccc(C#N)cc4c3n2C2CCOC(C)(C)C2)cn1` (single isomer, unassigned; ent-1) [Example 215, 1-(2,2-dimethyltetrahydro-2H-pyran-4-yl)-2-[(5-methylpyrazin-2-yl)methyl]-1H-imidazo[4,5-c]quinoline-8-carbonitrile, ENT-1], the half-maximal inhibitory concentration (IC50) in experiment [1] (setting [3]) turned out to be 13.4 nM; in experiment [2] (setting [4]), 13.9 nM.
As to `Cc1cc(Cc2nc3cnc4ccc(C#N)cc4c3n2[C@H]2CC[C@](C)(O)CC2)no1` [Example 247, 1-(trans-4-hydroxy-4-methylcyclohexyl)-2-[(5-methyl-1,2-oxazol-3-yl)methyl]-1H-imidazo[4,5-c]quinoline-8-carbonitrile, formate salt], the IC50 stood at 85.1 nM in experiment [1] (setting [3]) and 59.5 nM in experiment [2] (setting [4]).
Regarding `C[C@@H]1C[C@H](n2c(Cc3cc(C(F)(F)F)on3)nc3cnc4ccc(C#N)cc4c32)CCO1` [Example 119, 1-[(2R,4R)-2-methyltetrahydro-2H-pyran-4-yl]-2-{[5-(trifluoromethyl)-1,2-oxazol-3-yl]methyl}-1H-imidazo[4,5-c]quinoline-8-carbonitrile], the values for the IC50 in experiment [1] (setting [3]) and in experiment [2] (setting [4]) were 7.53 nM and 8.21 nM, respectively.
As for `C[C@@H]1C[C@H](n2c(Cc3cc(CO)on3)nc3cnc4ccc(Cl)cc4c32)CCO1` [Example 138], the IC50 in experiment [1] (setting [3]) was determined as 2.89 nM; in experiment [2] (setting [4]) it was 3.72 nM.
The like results for `Cc1cnc(Cc2nc3cnc4ccc(C#N)cc4c3n2[C@@H]2CCO[C@H](C)C2)s1` [Example 205, 1-[(2R,4R)-2-methyltetrahydro-2H-pyran-4-yl]-2-[(5-methyl-1,3-thiazol-2-yl)methyl]-1H-imidazo[4,5-c]quinoline-8-carbonitrile] were, in that order, 6.52 nM and 6.09 nM.
As to `Cc1nc(Cc2nc3cnc4ccc(C#N)cc4c3n2[C@@H]2CCO[C@H](C)C2)c(C2CC2)o1` [Example 155, 2-[(5-cyclopropyl-2-methyl-1,3-oxazol-4-yl)methyl]-1-[(2R,4R)-2-methyltetrahydro-2H-pyran-4-yl]-1H-imidazo[4,5-c]quinoline-8-carbonitrile, formate salt], the IC50 in experiment [1] (setting [3]) amounted to 11.8 nM; in experiment [2] (setting [4]), 8.99 nM.
The like results for `C[C@@H]1C[C@H](n2c(Cc3cncs3)nc3cnc4ccc(C#N)cc4c32)CCO1` [Example 231, 1-[(2R,4R)-2-methyltetrahydro-2H-pyran-4-yl]-2-(1,3-thiazol-5-ylmethyl)-1H-imidazo[4,5-c]quinoline-8-carbonitrile, formate salt] were, in that order, 24.9 nM and 26.6 nM.
As for `Cc1cc(Cc2nc3cnc4ccc(C#N)cc4c3n2[C@@H]2CCO[C@H](C)C2)on1` [Example 95, 2-[(3-Methyl-1,2-oxazol-5-yl)methyl]-1-[(2R,4R)-2-methyltetrahydro-2H-pyran-4-yl]-1H-imidazo[4,5-c]quinoline-8-carbonitrile], the IC50 in experiment [1] (setting [3]) stood at 5.36 nM; in experiment [2] (setting [4]), 6 nM.
For `Cc1cn(Cc2nc3cnc4ccc(F)cc4c3n2[C@@H]2CCO[C@H](C)C2)nn1` [Example 199, 8-fluoro-1-[(2R,4R)-2-methyltetrahydro-2H-pyran-4-yl]-2-[(4-methyl-1H-1,2,3-triazol-1-yl)methyl]-1H-imidazo[4,5-c]quinoline] the same measures were 10.3 nM and 11.8 nM.

Source of the values: patent US10039753B2, “Imidazo[4,5-c]quinoline and imidazo[4,5-c][1,5]naphthyridine derivatives as LRRK2 inhibitors” (Pfizer Inc., priority 2015, dated 2018).
